{"source": "ChEMBL document CHEMBL4665898", "about": "“Semisynthetic Analogs of the Antibiotic Fidaxomicin-Design, Synthesis, and Biological Evaluation” (ACS Med Chem Lett, 2020)", "system": "Mycobacterium tuberculosis", "assay": "Antimycobacterial activity against multi-drug resistant Mycobacterium tuberculosis after 5 days in presence of 7H9 medium by CLSI-based broth microdilution method", "format": "functional", "details": "120 h, time 5 day", "data": [{"smiles": "CCc1c(Cl)c(O)c(Cl)c(O)c1C(=O)O[C@@H]1[C@@H](O)[C@@H](OC)[C@@H](OC/C2=C\\C=C\\C[C@H](O)/C(C)=C/[C@H](CC)[C@@H](O[C@@H]3OC(C)(C)[C@@H](OC(=O)C(C)C)[C@H](O)[C@@H]3O)/C(C)=C/C(C)=C/C[C@@H]([C@@H](C)O)OC2=O)O[C@H]1C", "values": [{"measurement": "MIC", "value": "< 8", "unit": "ng/mL"}]}]}
